Laboratory results as given in patent publication US8632452B2, “Peroxisome proliferator-activator receptor δ (PPARδ) and the development of preimplantation embryos” (Board of Regents of the University of Texas System, priority 2005, dated 2014).

Assays:
[1] = system: preimplantation mouse embryos (wild type, PPARδ+/+); experiment: Complete hatching of cultured wild type mouse embryos; type: cell-based; details: for rate of complete hatching versus control, ligand added at two-cell, eight-cell or morula stage: exposure 0-96, 24-96 and 48-96 hrs; for rate of complete hatching versus control, ligand added at two-cell, eight-cell or morula stage / rate of complete hatching versus control, ligand added at blastocyst stage: read at 96 hrs; for rate of complete hatching versus control, ligand added at blastocyst stage: exposure 72-96 hrs; for proportion of completely hatched embryos: 0.1 μM each ligand from two-cell stage, untreated 30%
From the text: (§1) Harvest and culture of mouse embryos. Mice were obtained from the following sources: C3H, 129S1/SvImJ and C57BL6/J, the Jackson laboratory (Bar Harbor, Me., USA); ICR and C57BL6/Nhd, Harlan (Indianapolis, Ind., USA); PPARδ−/−, a gift from Dr. R. Evans (the Salk Institute, La Jolla, Calif.). The wild type (WT) counter parts of PPARδ−/− were bred by mating 129S1/SvImJ and the offspring of C57BL6/J×129S1/SvImJ. Mice were kept in temperature and humidity controlled environment (07:00 light on, 19:00 light off) with free access to food and water. The mouse embryos were harvested and cultured as described previously (Huang et al., 2003). Briefly, three-week old female mice were super-ovulated with intra-peritoneal injection of PMSG (5 IU) followed by hCG (5 IU) 42-46 hrs later. After hCG injection (at 15:00), each female mouse was caged with one male mouse with proven fertility. Unless specified otherwise, embryos (at two-cell stage) were harvested 44-48 hrs later and cultured (17-20 per group) at 37° C. under 5% CO2 in 4-well plates (Nalge Nunc International, Naperville, Ill., USA) containing 600 ul protein-free media. The HTF media (Sage Biopharma, Bedminster, N.J., USA) was used during the first 48 hrs; the αMEM (Irvine Scientific), with Earle's Salts and 2 mM glutamine, was used during the second 48 hrs. After 96 hrs of culture, each embryo was examined for the presence of zona pellucida. Those completely free of the zona pellucida were counted as having completely hatched. The rate of complete hatching was calculated by dividing the number of completely hatched embryos by the number of total embryos. Complete embryo hatching was used as an end point because it is a clear cut endpoint and correlates with the likelihood of implantation and viable pregnancy (Huang et al., 2003; Huang et al., 2004b). The concentration of the vehicle (DMSO) was less than 1:10,000; control embryos received the same concentration of DMSO. Prism® Version 3.0 (GraphPad Software Inc. San Diego, Calif.), with the Hill slope set at 1.0, was used to estimate the ED50 of L-165041. Chi-square and Student's t-tests were used where appropriate (InStat® Version 3.05, GraphPad Software Inc.). A p<0.05 was considered statistically significant.

PPARδ−/− embryos = experiment: Complete hatching of cultured PPARδ−/− mouse embryos; type: cell-based; details: 96 h; for effect on hatching of PPARδ−/− embryos: 0.1 μM from two-cell stage
From the text: as §1, with “DMSO.” for “DMSO. Prism® Version 3.0 (GraphPad Software Inc. San Diego, Calif.), with the Hill slope set at 1.0, was used to estimate the ED50 of L-165041. Chi-square and Student's t-tests were used where appropriate (InStat® Version 3.05, GraphPad Software Inc.). A p<0.05 was considered statistically significant.”

[2] = system: preimplantation mouse embryos (C3B6F1); experiment: TUNEL assay, dead cell index in cultured embryos; type: cell-based; details: 0.1 μM, 72 hrs of culture
Procedure: Terminal deoxynucleotidyl transferase mediated dUTP Nick End Labeling (TUNEL) and dead cell index. The embryonic cells that undergo programmed cell death were identified by TUNEL assay using a commercial kit (In Situ Cell Death Detection Kit, Roche Applied Science) with some modifications. At each time point indicated, embryos were collected after culture or harvested from mice and fixed in 4° C. PBS containing 4% buffered paraformaldehyde for 30 min. Prior to TUNEL, the embryos were incubated at 37° C. with 5% triton in PBS for 20 mins. The manufacturer's protocol was modified. Up to 20 blastocysts were incubated at 37° C. in 20 uL of TUNEL reaction solution (2 uL of TUNEL enzyme and 18 uL of 1:4 diluted labeling solution) in a humidified chamber for 60 mins. The embryos were then incubated in DAPI (30 ug/mL) for 5 mins at 37° C. before mounted in 16.6% Elvanol® 50-42 (Dupont, Wilmington, Del., USA) in 0.1 M Tris HCl pH 8.5. The apoptotic cells and the total cells were visualized using a fluorescence microscope (AxioPlan 2, Carl Zeiss, Germany) with FITC and UV filters, respectively. DNAse-treated embryos were used as positive controls. The dead cell index (percent of cells that were TUNEL positive) was determined by dividing the number of TUNEL-positive cells by the number of total cells then multiplies by 100%.

[3] = system: preimplantation mouse embryos; experiment: BrdU uptake, proliferation index and cell number in cultured embryos; type: cell-based
Procedure: 5-Bromo-2′-deoxy-uridine (BrdU) uptake and the proliferation index. The proliferation of embryonic cells was determined based on their abilities to incorporate BrdU. The assay was performed using a commercial kit (BrdU Labeling and Detection Kit I, Roche Applied Science, Indianapolis, Ind.) according to manufacturer's protocols with some optimizations. One of the changes was the duration of incubation. […] For the comparison between control and L165,041 treated embryos, the optimal time was 6 minutes. The modified procedure is as follows. Immediately after harvest, the embryos were incubated in 100 μl pre-equilibrated HTF medium containing 10 μM BrdU for […] at 37° C. under 5% CO2. Following the incubation, the embryos were fixed in ice-cold glycine (50 mM) in 70% ethanol (pH2.0) at −20° C. for 30 mins. Following rehydration/blocking in phosphate buffered saline (PBS) containing 1% BSA, the embryos were incubated with diluted anti-BrdU mouse monoclonal antibody (1:2) in the incubation buffer containing 1% BSA and followed by another incubation with a diluted FITC-conjugated […] IgG antibody (1:4) in PBS containing 1% BSA. Both incubations were at 37° C. and lasted for 30 mins; the embryos were washed in 200 μl PBS containing 1% BSA after each incubation. After a final incubation in DAPI (5 μg /ml) for 90 mins at 25° C., the embryos were mounted in 0.1 M Tris HCl (pH 8.5) containing 16.6% Elvanol® 50-42 (DuPont Wilmington, Del., USA) and 2.5% 1,4-diazabicyclo-(2.2.2)-octane. Cells that were in S-phase and, therefore, incorporated BrdU were identified under a FITC filter. Total cell number was determined based on DAPI nuclear staining under a UV filter (AxioPlan 2, Carl Zeiss, Germany). The proliferation index (percent of cells in S-phase) was determined by dividing the number of BrdU-positive cells by the number of total cells then multiplies by 100%.
The proliferation of embryonic cells was determined based on their abilities to incorporate BrdU. […] Total cell number was determined based on Hoechst 33258 nuclear staining under a UV filter.

[4] = system: PPARδ+/+ embryos transferred to gestational carriers (ICR female mice); experiment: Embryo transfer to gestational carriers and determination of implantation rate; type: in vivo, mouse; details: wild type two-cell embryos treated 48 h, gestation sacs counted 72 h after transfer; control 41%, p<0.05
Procedure: Embryo transfer was performed as described previously (Huang et al., 2004b). Briefly, embryos were transferred to gestational carriers (ICR female mice) on day 2.5 of pseudopregnancy under a dissecting microscope (Olympus SZ-PT, Shinjuku-ku, Tokyo, Japan). After anesthesia, each uterine horn was accessed via a 1.5 cm flank incision. With the proximal oviduct held by a pair of forceps, an opening was created at the distal end of the uterine horn on the anti-mesenteric side with a 30 gauge needle. […] Up to seven embryos in 1.5 μl transfer medium (MEM with 25 mM HEPES and 1% BSA) were transferred to each horn. After each transfer, the contents of the pipette were examined under a stereomicroscope to identify retained embryos. To avoid the mixing of embryos as a result of embryo crossover (Dr. Andreas Zimmer, University of Bonn, Germany, MG118 List, the Jackson Laboratory), each gestational carrier received only one kind of embryo. […] Seventy-two h after embryo transfer, the rates of implantation were determined based on a previously-described method with modifications (Paria et al., 1993). […] After the carrier was sacrificed, the uterine horns were opened and the gestation sacs counted. The implantation rate was expressed as percentages of gestation sacs over total embryos transferred. […]

PPARδ+/+ embryos = experiment: Developmental stage (blastocyst formation) of cultured embryos at time of transfer; type: cell-based, mouse; details: wild type two-cell embryos treated 48 h
From the text: Harvest and culture of mouse embryos. Mice were obtained from the following sources: C3H, 129S1/SvImJ and C57BL6/J, the Jackson laboratory (Bar Harbor, Me., USA); ICR and C57BL6/Nhd, Harlan (Indianapolis, Ind., USA); PPARδ−/−, a gift from Dr. R. Evans (the Salk Institute, La Jolla, Calif.). The wild type (WT) counter parts of PPARδ−/− were bred by mating 129S1/SvImJ and the offspring of C57BL6/J×129S1/SvImJ. Mice were kept in temperature and humidity controlled environment (07:00 light on, 19:00 light off) with free access to food and water. The mouse embryos were harvested and cultured as described previously (Huang et al., 2003). […] Those completely free of the zona pellucida were counted as having completely hatched. The rate of complete hatching was calculated by dividing the number of completely hatched embryos by the number of total embryos. […]
Embryo transfer was performed as described previously (Huang et al., 2004b). […] Seventy-two h after embryo transfer, the rates of implantation were determined based on a previously-described method with modifications (Paria et al., 1993). […] After the carrier was sacrificed, the uterine horns were opened and the gestation sacs counted. The implantation rate was expressed as percentages of gestation sacs over total embryos transferred. […]

[5] = system: mouse embryos transferred to gestational carriers; details: treated embryos transferred to gestational carriers; cited from earlier work

Row | Compound | complete embryo hatching versus control ([1]; 1 μM ligand, two-cell embryos (C3B6F1), 96 hrs) | relative risk of complete hatching versus control group ([1]; 1 μM, 96 hrs, 95% confidence interval 1.08-3.36) | rate of complete hatching versus control, ligand added at two-cell, eight-cell or morula stage ([1]; 1 μM) | rate of complete hatching versus control, ligand added at two-cell, eight-cell or morula stage ([1]; 1 μM, listed as L-165041) | rate of complete hatching versus control, ligand added at blastocyst stage ([1]; 1 μM) | rate of complete hatching versus control, ligand added at blastocyst stage ([1]; 1 μM, listed as L-165041) | EC50 ([1]; Mus musculus, two-cell embryos cultured 96 hrs in different concentrations, estimated, Hill slope 1.0, read-out: ED50 of enhancement of complete embryo hatching) [nM] | proportion of completely hatched embryos ([1]; wild type embryos, 96 h) [%] | effect on hatching of PPARδ−/− embryos (PPARδ−/− embryos) | dead (apoptotic, TUNEL positive) cells versus control [2] | cells in the S-phase (BrdU incorporation) versus control ([3]; 0.1 μM, 72 hrs of culture, BrdU 6 minutes) | average number of cells per embryo ([3]; 0.1 μM, 72 hrs of culture, same in control group) | percentages of BrdU-positive cells over the untreated control ([3]; 10 μM BrdU, wild type embryos) | implantation rate (gestation sacs over embryos transferred) [4] [%] | blastocyst formation versus control (PPARδ+/+ embryos) | completely hatched embryos versus total embryos ([1]; wild type embryos, 0.1 μM, 96 h) | completely hatched embryos versus total embryos (PPARδ−/− embryos; PPARδ−/− embryos, 0.1 μM, untreated 4/144) | more live births over control embryos [5] [%]
1 | CCCc1c(OCCCOc2ccc(OCC(=O)O)cc2)ccc(C(C)=O)c1O [L165,041, 4-[3-(4-Acetyl-3-hydroxy-2-propylphenoxy)propoxy]phenoxy-acetic acid] | enhanced complete embryo hatching | 1.9 | significantly higher rates of complete hatching | effective in stimulating embryo hatching | the difference was not statistically significant | no longer effective in stimulating hatching | 21 | 54 | Neither iloprost nor L-165041 affected the hatching of PPARδ−/− embryos | less dead cells | more cells in the S-phase | 63 | increased the percentages of BrdU-positive cells | 64 | did not significantly enhance blastocyst formation | – | – | –
2 | CC#CCC(C)[C@H](O)/C=C/[C@@H]1[C@H]2C/C(=C/CCCC(=O)O)C[C@H]2C[C@H]1O (some centres unmarked) [iloprost] | – | – | – | – | – | – | – | 50 | had no effect | – | – | – | – | – | – | 37/74 | 3/144 | 28
